The text below walks through data of ChEMBL document CHEMBL1201862, “PubChem BioAssay data set” (2004).

One may read the EC50 as the concentration needed to bring the measured effect to its halfway point. The term AC50 denotes the concentration at which the activity in the assay is half-maximal.

Assay [1] has as its system Streptococcus sp. 'group A'. The assay can be described thus: growth inhibition of control SK(-) GAS strain, dose response, counter-screen for streptokinase expression inhibitor project, luminescence, kanamycin, BacTiterGlo, confirmation (AID 1900). It is filed as functional, organism-based. On the technique in general: Counterscreens check selectivity or assay interference.

The target in the next assay is T1, Streptokinase A (Streptococcus pyogenes serotype M1, UniProt P10520).
T1 sequence (P10520 whole entry): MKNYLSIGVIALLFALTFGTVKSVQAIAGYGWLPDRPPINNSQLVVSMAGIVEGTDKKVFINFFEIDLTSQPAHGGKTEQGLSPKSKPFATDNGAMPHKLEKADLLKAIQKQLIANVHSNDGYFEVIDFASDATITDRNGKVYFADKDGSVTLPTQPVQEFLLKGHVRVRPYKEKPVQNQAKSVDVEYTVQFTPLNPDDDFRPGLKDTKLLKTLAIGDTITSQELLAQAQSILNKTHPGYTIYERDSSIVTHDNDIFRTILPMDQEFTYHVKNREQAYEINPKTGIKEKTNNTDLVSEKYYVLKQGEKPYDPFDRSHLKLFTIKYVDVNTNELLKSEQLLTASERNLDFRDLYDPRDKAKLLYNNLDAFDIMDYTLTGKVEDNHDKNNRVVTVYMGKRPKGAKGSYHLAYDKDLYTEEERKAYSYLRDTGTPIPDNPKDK
Put plainly: S. pyogenes streptokinase expression inhibitors, potency, dose response, plasminogen activation absorbance, OD405 (AID 1914).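 Note: secreted streptokinase activity via plasminogen activation per viability signal from cell pellet.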 It is filed as functional, Streptococcus pyogenes M1 GAS.

The subject of another assay is Streptococcus. The assay can be described thus: Group A Streptococcus viability loss, dose response, counter-screen for streptokinase expression inhibitor project, luminescence, BacTiterGlo (AID 1915).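 Note: potency for reduction of bacterial viability or growth.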 It is filed as functional, organism-based.
The next assay relates to INS1. The assay can be described thus: beta cell apoptosis inhibitors, cytokine rescue, dose response, luminescence, retest (AID 449756).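 Note: cell death triggered by IL-1 beta plus TNF-alpha plus IFN-gamma mixture; protective hits raise ATP signal compared with cytokine alone wells.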 It is filed as functional, cell-based. The conditions noted are these: Rattus norvegicus.
Assay [2] can be described thus: inhibitors of intracellular T. cruzi replication, confirmation, NIH3T3 host cells, beta-gal luminescence (AID 2044).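 Note: intracellular parasites grown in NIH/3T3 mouse fibroblasts as host cells; luminescent beta-galactosidase reporter signal from transgenic T. cruzi replicating inside host cells; inhibitors lower the luminescence signal.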 It is filed as functional, cell-based.
Assay [3] in a line: cytotoxicity toward NIH3T3 fibroblasts, dose response, counter-screen, cell-based, ATP luminescence, mouse fibroblasts (AID 2010).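 Note: cells exposed to compound for about 90 hours before reading.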 It is filed as functional.
Assay [4] can be described thus: Luminescence Cell-Based Dose Retest to Confirm Inhibitors of Cancer Stem Cells. [Related pubchem assays (depositor defined):AID2717, AID2721]. It is filed as functional. The conditions noted are these: Homo sapiens.

Active and inactive are the calls of the source. Cut-off read from the data, not from the text of the source, for most assays here: actives have a measured EC50 and inactives only a lower limit. Bounds are passed on as bounds.

Regarding `CC1(C)S[C@@H]2[C@H](NC(=O)COc3ccccc3)C(=O)N2C1C(=O)OCc1ccccc1` (some centres undefined), the EC50 is 1.42 µM (active) in assay [1], > 150 µM (not active) at Streptokinase A and 2.56 µM (active) in the assay with Streptococcus.
In the case of `CC(=O)c1ccccc1OCCOCCOc1ccccc1C(C)=O`, the AC50 in the assay on INS1 is 31.1 µM (active).
Consider `COc1ccc(CN(C)CC(=O)c2c(N)n(Cc3ccccc3)c(=O)n(C)c2=O)c(OC)c1`, for which the EC50 in assay [2] was 2.78 µM (active); in assay [3], > 60 µM (not active).
For `COc1ccc(/C=C/C2=CCN(Cc3ccc(OC)cc3)CC2)cc1` the same measures were 3.17 µM (active) and > 60 µM (not active).
For the compound `CSc1ccc(/C=C/c2ccc3cccc(O)c3n2)cc1`, the EC50 is 0.693 µM (active) in assay [1] and 14 µM (active) in the assay with Streptococcus.
In the case of `Cc1ccc(-n2c(N)c(-c3nc4ccccc4n3C)sc2=S)cc1`, the EC50 is 39.6 µM (active) in assay [1], > 150 µM (not active) at Streptokinase A and > 150 µM (not active) with Streptococcus.
In the case of `Cc1ccc2nc(N=C(NS(=O)(=O)c3ccc(F)cc3)c3ccccc3)sc2c1`, the EC50 in assay [1] was 5.01 µM (active); on Streptokinase A, > 50 µM (not active); in the assay on Streptococcus, 10 µM (active).
With `COc1cc(OC)c(C=O)c(OC(=O)N2CCOCC2)c1`, the AC50 in assay [4] is > 195 µM (inactive).
Take `O=C(c1ccc(O)cc1)c1ccc(C(=O)c2ccc(O)cc2)cc1`: the EC50 in assay [1] was 2.84 µM (active); on Streptokinase A, > 150 µM (not active); in the assay on Streptococcus, 31.4 µM (active).
For `CCn1cc(C(=O)N[C@H](C)c2ccccc2)c(=O)c2cc(F)c(N3CCN(C)CC3)cc21`, in assay [4], the AC50 was 0.796 µM (active).
As to `CN1CCc2nc(SCc3ccc(C(C)(C)C)cc3)c(C#N)cc2C1`, the results for the EC50 in assay [2] and in assay [3] were 0.465 µM (active) and 19 µM (active), respectively.
In the case of `CC1(C)C=Cc2c(c3c(c4c(=O)c(-c5ccc(O)cc5)coc24)OC(C)(C)CC3)O1`, in assay [4], the AC50 was 6.61 µM (active).
Regarding `Cc1ccccc1CN(C)CC(=O)Nc1ccccc1-c1ccccc1`, the EC50 in assay [1] is 7.65 µM (active); on Streptokinase A it was 23.3 µM (active); in the assay with Streptococcus, > 150 µM (not active).
Take `CC(=O)c1ccc(-c2cc([C@H]3[C@H]4C=CC[C@@H](C)[C@@H]4C(=O)N3Cc3ccccc3)ccc2F)cc1`: the half-maximal activity concentration (AC50) in assay [4] was 5.46 µM (active).
Turning to `O=C(CSc1nnc(CNC(=O)c2ccccc2)o1)NCc1ccccc1`, the EC50 (in assay [1]; on Streptokinase A; with Streptococcus) was > 150 µM (not active) throughout.
In the case of `COc1ccc(C(=O)N2CCc3c([nH]c4ccccc34)C2C(F)(F)F)cc1` (centres undefined), the EC50 (in assay [1]; on Streptokinase A; with Streptococcus) was > 150 µM (not active) throughout.
`COc1cc(OC)cc(C(=O)Nc2cccc(N3CCCC3)c2)c1`: the values for the EC50 in assay [2] and in assay [3] were 3.33 µM (active) and > 30 µM (not active), respectively.
With `CN1CCN(CCOc2ccc(Cl)c(Cl)c2)CC1`, the EC50 is 0.516 µM (active) in assay [2] and > 60 µM (not active) in assay [3].
As for `COc1cc2cc(C(=O)N3CCOCC3)cc(-c3ccc(C)cc3)c2cc1OC`, the AC50 in the assay on INS1 was 6.42 µM (active).
In the case of `CCCOc1ccc(NCC(=O)Nc2ccc(C)cc2C)cc1`, the EC50 is 3.07 µM (active) in assay [2] and > 60 µM (not active) in assay [3].
For the compound `Cc1ccc(NC(=S)N(CCCN2CCCC2)Cc2cccn2Cc2ccc(Cl)cc2)cc1Cl`, in assay [4], the AC50 is 5.36 µM (active).
For the compound `COc1ccc(CCC(C)NCC2CCCCC2)cc1` (centres undefined), in assay [4], the AC50 was 5.09 µM (active).
As for `COc1ccc(S(=O)(=O)N2CCCCCC2)cc1N(C)S(=O)(=O)c1ccc(Cl)cc1`, the EC50 in assay [2] was 2.21 µM (active); in assay [3], > 60 µM (not active).
For the compound `CC(C)(C)c1cc(C(=O)NNc2cccc(Cl)c2)n(Cc2ccccc2)n1`, in assay [4], the AC50 was 1.34 µM (active).
Regarding `O=c1c2ccccc2nc(SCCN2CCCCC2)n1CCc1ccccc1`, the EC50 in assay [2] is 1.57 µM (active); in assay [3], > 60 µM (not active).
As for `COc1ccc(-n2c(=O)c3c4c(sc3n3c(S)nnc23)CCC4)cc1`, the results for the EC50 (in assay [1]; in the assay with Streptococcus) were 15.7 µM (active) and 17.4 µM (active), respectively.
On to `Cc1ccc(-c2csc(-c3c[nH]c4ccccc34)n2)c(C)c1`, for which the values for the EC50 (in assay [1]; on Streptokinase A; in the assay with Streptococcus) were 12 µM (active), > 150 µM (not active) and 7.96 µM (active), respectively. Further, in assay [4], the AC50 was 2.88 µM (active).
As to `COc1cnc(-c2ccccn2)nc1Oc1ccc(C(C)(C)C)cc1`, the figures for the EC50 (in assay [1]; on Streptokinase A; in the assay with Streptococcus) were 12.4 µM (active), > 150 µM (not active) and 19.2 µM (active), respectively. For the same compound, in the assay on INS1, the AC50 was 6.45 µM (active).
Turning to `CN1CCN(CCCOc2ccc(-c3ccccc3)cc2)CC1`, the 50% effective concentration (EC50) in assay [2] is 0.988 µM (active); in assay [3] it was 7.93 µM (active).
In the case of `COc1ccccc1CNC(=O)C(=O)NCC1CCCN1S(=O)(=O)c1cccs1` (centres undefined), the EC50 in assay [2] was 2.54 µM (active); in assay [3], > 60 µM (not active).
Consider `O=C(NCCc1ccccc1F)C1CCCN1S(=O)(=O)c1ccc2ccccc2c1` (centres undefined), for which the EC50 in assay [2] was 1.63 µM (active); in assay [3] it was > 60 µM (not active).
Regarding `O=[N+]([O-])c1ccc(CP(=O)(c2ccccc2)c2ccccc2)cc1`, in assay [4], the AC50 was > 195 µM (inactive).
For `O=C(Nc1cccc(-c2csc(Nc3ccc(Cl)cc3)n2)c1)c1cc([N+](=O)[O-])cc(C(F)(F)F)c1`, the AC50 in assay [4] is 1.56 µM (active).
Regarding `Cc1ccc(NS(=O)(=O)c2ccc(NC(=O)c3ccccc3C(=O)O)cc2)c(C)c1`, the EC50 in assay [2] and in assay [3] was > 60 µM (not active) throughout.
Regarding `Cc1cc2oc(=O)cc(CN3CCN(S(=O)(=O)/C=C/c4ccccc4)CC3)c2cc1C`, the values for the EC50 in assay [2] and in assay [3] were 2.02 µM (active) and > 60 µM (inconclusive), respectively.
Consider `Cc1ccc(-c2cc(-c3ccccc3)nc(N(C)N)n2)cc1`, for which the EC50 in assay [1] was 14.6 µM (active); at Streptokinase A, > 150 µM (not active); with Streptococcus it was > 150 µM (not active).
In the case of `Cc1nc(SCc2nc3cc(C(F)(F)F)ccc3[nH]2)c2oc3ccccc3c2n1`, the AC50 in assay [4] was 4.11 µM (active).
Take `COc1cc(/C=N/N(c2ccccc2)c2ccccc2)ccc1O`: in assay [4], the AC50 was 5.16 µM (active).
On the same count and under the same terms, in the case of `CCCCc1ccc(N/N=C(\C(C)=O)C(=O)Nc2ccc(NC(C)=O)cc2OC)cc1` it was 3.91 µM (active).
As to `O=C1CN(/N=C/c2ccc([N+](=O)[O-])o2)C(=O)N1` [NITROFURANTOIN], the results for the EC50 (in assay [1]; at Streptokinase A; with Streptococcus) were 3.16 µM (active), > 150 µM (not active) and 9.83 µM (active), respectively.
